Reference: ChEMBL document CHEMBL1287687, “5-benzyloxytryptamine as an antagonist of TRPM8” (Bioorg Med Chem Lett, 2010)
pIC50: −log10 of the molar value. Calls of active or inactive are those of the source. The calls are words filed in the database; no cut-off is given here.

Columns and labels:
[1] = molecular target: T1, Transient receptor potential cation channel subfamily M member 8 (Homo sapiens, UniProt Q7Z2W7); assay: Antagonist activity at human TRPM8 receptor expressed in human T-REx-293 cells assessed as inhibition of menthol-induced 45calcium influx treated 5 mins before menthol challenge measured after 5 mins; assay type: functional, cell-based, HEK293; conditions: for pIC50: read-out: IC50; for IC50: hek293
Target sequence in this assay (Q7Z2W7 whole entry): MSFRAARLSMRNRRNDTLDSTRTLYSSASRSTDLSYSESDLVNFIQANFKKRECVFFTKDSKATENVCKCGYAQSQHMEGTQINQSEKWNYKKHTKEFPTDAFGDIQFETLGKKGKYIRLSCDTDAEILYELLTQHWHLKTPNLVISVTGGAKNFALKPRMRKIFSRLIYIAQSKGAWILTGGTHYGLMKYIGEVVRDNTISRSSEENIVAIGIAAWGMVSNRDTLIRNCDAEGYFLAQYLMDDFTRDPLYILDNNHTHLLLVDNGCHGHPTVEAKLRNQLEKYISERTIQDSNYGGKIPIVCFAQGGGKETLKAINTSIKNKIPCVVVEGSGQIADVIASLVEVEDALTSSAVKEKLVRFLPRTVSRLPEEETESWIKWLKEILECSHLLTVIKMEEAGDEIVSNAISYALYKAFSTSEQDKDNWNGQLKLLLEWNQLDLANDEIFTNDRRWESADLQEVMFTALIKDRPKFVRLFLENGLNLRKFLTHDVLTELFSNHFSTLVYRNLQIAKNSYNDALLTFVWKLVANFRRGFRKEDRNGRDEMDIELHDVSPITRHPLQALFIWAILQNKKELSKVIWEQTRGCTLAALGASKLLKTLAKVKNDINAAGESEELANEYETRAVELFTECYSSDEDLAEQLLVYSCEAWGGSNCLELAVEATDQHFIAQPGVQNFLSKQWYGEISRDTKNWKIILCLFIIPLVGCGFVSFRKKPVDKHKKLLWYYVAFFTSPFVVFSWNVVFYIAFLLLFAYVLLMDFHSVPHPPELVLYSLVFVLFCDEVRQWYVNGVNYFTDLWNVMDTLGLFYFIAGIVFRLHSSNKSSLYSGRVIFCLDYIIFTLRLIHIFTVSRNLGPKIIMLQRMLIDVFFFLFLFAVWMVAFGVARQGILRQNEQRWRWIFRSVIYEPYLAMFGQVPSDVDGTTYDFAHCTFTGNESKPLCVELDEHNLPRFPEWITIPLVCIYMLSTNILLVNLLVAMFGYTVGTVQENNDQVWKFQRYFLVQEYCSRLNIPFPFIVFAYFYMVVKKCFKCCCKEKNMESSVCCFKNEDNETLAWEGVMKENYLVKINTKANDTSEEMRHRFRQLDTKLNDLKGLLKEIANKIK

[2] = molecular target: T1, Transient receptor potential cation channel subfamily M member 8; assay: Antagonist activity at human TRPM8 receptor expressed in human T-REx-293 cells assessed as inhibition of icilin-induced 45calcium influx treated 5 mins before icilin challenge measured after 5 mins; assay type: functional, cell-based, HEK293
Target sequence in this assay (Q7Z2W7 whole entry): as above

[3] = molecular target: T1, Transient receptor potential cation channel subfamily M member 8; assay: Antagonist activity at human TRPM8 receptor expressed in HEK cells assessed as inhibition of WS-12-stimulated current at 100 uM pretreated for 2 mins by patch clamp assay; assay type: functional, cell-based; conditions: HEK293
Target sequence in this assay (Q7Z2W7 whole entry, looked up): as the sequence (Q7Z2W7 whole entry) above

[4] = molecular target: Transient receptor potential cation channel subfamily V member 1 (Homo sapiens) (UniProt Q8NER1); assay: Inhibition of TRPV1 receptor up to 10 uM
[5] = molecular target: Transient receptor potential cation channel subfamily V member 4 (Homo sapiens) (UniProt Q9HBA0); assay: Inhibition of TRPV4 receptor up to 10 uM
[6] = molecular target: Transient receptor potential cation channel subfamily A member 1 (Homo sapiens) (UniProt O75762); assay: Inhibition of TRPA1 receptor up to 10 uM
[7] = molecular target: T1, Transient receptor potential cation channel subfamily M member 8; conditions: HEK293, 1 uM
Target sequence in this assay (Q7Z2W7 whole entry, looked up): as the sequence (Q7Z2W7 whole entry) above
Description: Antagonist activity at human TRPM8 receptor expressed in HEK cells assessed as inhibition of WS-12-stimulated current at 1 uM pretreated for 2 mins by patch clamp assay

Sequence of Transient receptor potential cation channel subfamily A member 1 (Homo sapiens) (O75762 whole entry): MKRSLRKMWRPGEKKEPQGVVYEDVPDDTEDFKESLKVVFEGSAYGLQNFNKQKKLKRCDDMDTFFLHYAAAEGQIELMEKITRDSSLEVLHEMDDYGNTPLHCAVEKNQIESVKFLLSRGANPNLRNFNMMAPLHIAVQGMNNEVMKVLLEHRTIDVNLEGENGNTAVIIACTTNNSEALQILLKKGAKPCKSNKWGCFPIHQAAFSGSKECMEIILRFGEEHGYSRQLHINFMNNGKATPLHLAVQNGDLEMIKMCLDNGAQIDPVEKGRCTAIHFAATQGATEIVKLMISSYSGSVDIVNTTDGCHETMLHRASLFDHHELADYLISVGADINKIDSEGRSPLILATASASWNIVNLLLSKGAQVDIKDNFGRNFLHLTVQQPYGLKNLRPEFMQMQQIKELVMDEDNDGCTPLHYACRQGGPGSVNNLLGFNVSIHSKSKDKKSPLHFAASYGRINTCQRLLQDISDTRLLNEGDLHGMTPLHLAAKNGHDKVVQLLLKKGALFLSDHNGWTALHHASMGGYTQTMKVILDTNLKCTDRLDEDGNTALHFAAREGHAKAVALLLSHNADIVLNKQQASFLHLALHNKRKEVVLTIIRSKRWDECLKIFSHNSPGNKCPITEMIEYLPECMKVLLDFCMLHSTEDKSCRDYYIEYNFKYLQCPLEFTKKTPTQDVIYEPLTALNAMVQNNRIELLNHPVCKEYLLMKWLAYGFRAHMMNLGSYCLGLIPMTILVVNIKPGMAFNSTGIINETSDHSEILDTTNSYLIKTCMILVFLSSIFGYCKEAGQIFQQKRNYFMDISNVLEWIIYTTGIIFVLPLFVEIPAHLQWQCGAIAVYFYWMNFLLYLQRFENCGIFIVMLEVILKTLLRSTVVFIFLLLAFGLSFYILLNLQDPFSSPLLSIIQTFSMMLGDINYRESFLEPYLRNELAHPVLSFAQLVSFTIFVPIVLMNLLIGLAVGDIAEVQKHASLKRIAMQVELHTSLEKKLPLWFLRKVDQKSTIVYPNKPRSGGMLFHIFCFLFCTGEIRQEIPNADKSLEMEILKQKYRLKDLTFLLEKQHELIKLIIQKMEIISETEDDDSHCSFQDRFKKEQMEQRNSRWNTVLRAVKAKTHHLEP
Sequence of Transient receptor potential cation channel subfamily V member 4 (Homo sapiens) (Q9HBA0 whole entry): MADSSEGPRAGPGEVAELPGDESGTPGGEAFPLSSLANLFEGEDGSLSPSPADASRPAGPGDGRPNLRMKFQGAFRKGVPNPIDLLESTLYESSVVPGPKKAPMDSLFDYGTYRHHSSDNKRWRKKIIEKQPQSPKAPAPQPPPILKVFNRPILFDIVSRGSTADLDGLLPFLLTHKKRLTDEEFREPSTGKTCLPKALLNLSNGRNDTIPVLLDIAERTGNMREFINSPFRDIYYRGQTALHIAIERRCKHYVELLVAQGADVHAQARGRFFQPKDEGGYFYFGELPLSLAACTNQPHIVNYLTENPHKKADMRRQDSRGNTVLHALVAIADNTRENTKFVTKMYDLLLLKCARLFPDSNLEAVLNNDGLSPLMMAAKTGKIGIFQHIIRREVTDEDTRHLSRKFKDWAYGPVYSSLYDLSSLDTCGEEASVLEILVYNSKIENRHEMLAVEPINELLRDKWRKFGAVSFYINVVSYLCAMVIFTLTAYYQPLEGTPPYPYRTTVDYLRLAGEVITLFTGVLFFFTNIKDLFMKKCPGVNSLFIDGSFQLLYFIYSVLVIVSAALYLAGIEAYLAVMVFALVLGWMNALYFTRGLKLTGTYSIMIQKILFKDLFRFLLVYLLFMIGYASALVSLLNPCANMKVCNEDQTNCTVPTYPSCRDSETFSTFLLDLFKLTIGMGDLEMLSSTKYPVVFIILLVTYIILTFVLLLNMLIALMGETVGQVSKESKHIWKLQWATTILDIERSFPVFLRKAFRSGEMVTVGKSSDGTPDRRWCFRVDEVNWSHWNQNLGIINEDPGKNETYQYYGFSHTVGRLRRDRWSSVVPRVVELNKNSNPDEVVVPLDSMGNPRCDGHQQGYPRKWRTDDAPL
Sequence of Transient receptor potential cation channel subfamily V member 1 (Homo sapiens) (Q8NER1 whole entry): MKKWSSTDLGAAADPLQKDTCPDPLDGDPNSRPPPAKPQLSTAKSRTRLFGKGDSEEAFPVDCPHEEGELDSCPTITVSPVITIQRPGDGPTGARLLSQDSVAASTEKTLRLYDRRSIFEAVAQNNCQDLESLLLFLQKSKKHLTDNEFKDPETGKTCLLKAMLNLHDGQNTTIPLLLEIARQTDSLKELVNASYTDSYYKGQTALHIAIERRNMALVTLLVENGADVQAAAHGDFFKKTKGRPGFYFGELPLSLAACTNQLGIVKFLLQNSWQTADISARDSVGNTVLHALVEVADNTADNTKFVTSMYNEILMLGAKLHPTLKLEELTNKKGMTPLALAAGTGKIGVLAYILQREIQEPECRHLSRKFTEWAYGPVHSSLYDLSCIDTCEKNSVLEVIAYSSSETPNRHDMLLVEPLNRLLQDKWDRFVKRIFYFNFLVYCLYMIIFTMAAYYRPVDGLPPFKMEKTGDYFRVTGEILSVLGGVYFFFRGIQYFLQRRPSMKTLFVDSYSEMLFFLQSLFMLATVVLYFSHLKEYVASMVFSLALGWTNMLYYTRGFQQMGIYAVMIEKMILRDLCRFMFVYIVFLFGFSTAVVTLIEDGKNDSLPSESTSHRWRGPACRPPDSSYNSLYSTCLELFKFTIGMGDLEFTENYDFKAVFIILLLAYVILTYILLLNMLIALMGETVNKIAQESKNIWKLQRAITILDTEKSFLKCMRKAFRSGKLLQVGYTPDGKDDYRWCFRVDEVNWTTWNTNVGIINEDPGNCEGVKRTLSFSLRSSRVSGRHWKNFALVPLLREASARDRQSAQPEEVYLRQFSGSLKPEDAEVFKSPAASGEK

SMILES	pIC50 [1]	pIC50 [2]	also measured
COc1ccc2[nH]cc(CCN)c2c1 [5-METHOXYTRYPTAMINE]	4.91	4.94	–
NCCc1c[nH]c2ccc(Cl)cc12	4.67	4.49	–
NCCc1c[nH]c2ccc(O)cc12	–	–	inhibition [3]: inactive
CN(C)CCc1c[nH]c2ccc(OCc3ccccc3)cc12	5.25	5.22	–
CCOC(=O)NCCc1c[nH]c2ccc(OCc3ccccc3)cc12	4.67	4.54	–
NCCc1c[nH]c2c(OCc3ccccc3)cccc12	5.48	5.05	–
Cc1[nH]c2ccc(OCc3ccccc3)cc2c1CCN	5.82	5.63	–
NCCc1c[nH]c2ccc(F)cc12	4.91	4.88	–
N#CCc1c[nH]c2ccc(OCc3ccccc3)cc12	–	–	IC50 [1]: Not Active
NCCc1c[nH]c2ccc(OCc3ccccc3)cc12 [5-BENZYLOXYTRYPTAMINE]	6.47	6.18	inhibition [4]: inactive; inhibition [5]: inactive; inhibition [6]: inactive; inhibition [7]: Active
NCCc1c[nH]c2ccc(Br)cc12	4.64	4.52	–
c1ccc(COc2ccc3[nH]ccc3c2)cc1	–	–	IC50 [1]: Not Active
